According to patent US20160039825A1 (BIOGEN MA INC., priority 2013, published 2016):

Biological target: T1, Human ATX protein (Homo sapiens, UniProt Q13822)
T1 construct: made in house
Experiment: Autotaxin (ATX) assay, FRET with FS-3 substrate
Assay type: biochemical
Details: upper bound bins (no greater than 100, 250 or 500 nM); FS-3 2 μM, ATX 1.0 μg/mL
Method in brief: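 Hydrolysis of the FRET substrate FS-3 (2 μM final) unquenches fluorescein, read at excitation 485 nm and emission 538 nm after 2 h at room temperature, protected from light. Purified human ATX (1.0 μg/mL) and compound were first incubated for 30 min in pH 7.4 Tris/salt buffer containing 1 mg/mL fatty acid-free BSA.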

| IC50 [nM] | Compound |
| --- | --- |
| ≤ 100 | O=C(OCc1cc(Cl)cc(C(F)(F)F)c1)N1CCCn2nc(C(=O)N3CCNC(C(F)(F)F)C3)cc2C1 (stereo not shown) [Example 189] |
| ≤ 100 | C#CCCCCNC(=O)c1cc2n(n1)CCCN(C(=O)OCc1cc(C(F)(F)F)cc(C(F)(F)F)c1)C2 [Example 190] |
| ≤ 100 | O=C(O)C1CNCCN1C(=O)c1cc2n(n1)CCCN(C(=O)OCc1cc(C(F)(F)F)cc(C(F)(F)F)c1)C2 (stereo not shown) [Example 191] |
| ≤ 100 | O=C(O)C1CN(C(=O)c2cc3n(n2)CCCN(C(=O)OCc2cc(C(F)(F)F)cc(C(F)(F)F)c2)C3)CCN1 (stereo not shown) [Example 192] |
| ≤ 100 | O=C(OCc1cc(Cl)cc(C(F)(F)F)c1)N1CCCn2nc(C(=O)N3CCCNCC3)cc2C1 [Example 193] |
| ≤ 100 | CNC1CCN(C(=O)c2cc3n(n2)CCCN(C(=O)OCc2cc(Cl)cc(C(F)(F)F)c2)C3)C1 (stereo not shown) [Example 195] |
| ≤ 100 | N#CC1CNCCN1C(=O)c1cc2n(n1)CCCN(C(=O)OCc1cc(Cl)cc(C(F)(F)F)c1)C2 (stereo not shown) [Example 196] |
| ≤ 100 | O=C(OCc1cc(Cl)cc(C(F)(F)F)c1)N1CCCn2nc(C(=O)N3CC4CCC3CN4)cc2C1 (stereo not shown) [Example 197] |
| ≤ 100 | CC1CN(C(=O)c2cc3n(n2)CCCN(C(=O)OCc2cc(Cl)cc(C(F)(F)F)c2)C3)CC(C)N1 (stereo not shown) [Example 198] |
| ≤ 100 | CC1CNCC(C)N1C(=O)c1cc2n(n1)CCCN(C(=O)OCc1cc(Cl)cc(C(F)(F)F)c1)C2 (stereo not shown) [Example 199] |
| ≤ 100 | CC1(C)CN(C(=O)c2cc3n(n2)CCCN(C(=O)OCc2cc(Cl)cc(C(F)(F)F)c2)C3)CCN1 [Example 200] |
| ≤ 100 | CNC1CN(C(=O)c2cc3n(n2)CCCN(C(=O)OCc2cc(Cl)cc(C(F)(F)F)c2)C3)C1 [Example 202] |
| ≤ 100 | O=C(OCc1cc(Cl)cc(C(F)(F)F)c1)N1CCCn2nc(C(=O)N3C[C@@H]4C[C@H]3CN4)cc2C1 [Example 204] |
| ≤ 100 | CCC1CNCCN1C(=O)c1cc2n(n1)CCCN(C(=O)OCc1cc(Cl)cc(C(F)(F)F)c1)C2 (stereo not shown) [Example 205] |
| ≤ 100 | CCC1CN(C(=O)c2cc3n(n2)CCCN(C(=O)OCc2cc(Cl)cc(C(F)(F)F)c2)C3)CCN1 (stereo not shown) [Example 206] |
| ≤ 100 | CC1(C)CNCCN1C(=O)c1cc2n(n1)CCCN(C(=O)OCc1cc(Cl)cc(C(F)(F)F)c1)C2 [Example 207, 3-chloro-5-(trifluoromethyl)benzyl 2-(2,2-dimethylpiperazine-1-carbonyl)-7,8-dihydro-4H-pyrazolo[1,5-a][1,4]diazepine-5(6H)-carboxylate] |
| ≤ 100 | CC1CN(C(=O)c2cc3n(n2)CCCN(C(=O)OCc2cc(Cl)cc(C(F)(F)F)c2)C3)CCN1 (stereo not shown) [Example 208] |
| ≤ 100 | O=C(OCc1cc(Cl)cc(C(F)(F)F)c1)N1CCCn2nc(C(=O)N3CCNCC34CC4)cc2C1 [Example 210] |
| ≤ 100 | O=C(OCc1cc(Cl)cc(C(F)(F)F)c1)N1CCCn2nc(C(=O)N3CCN4CCC[C@H]4C3)cc2C1 [Example 211] |
| ≤ 100 | O=C1CN(C(=O)c2cc3n(n2)CCCN(C(=O)OCc2cc(Cl)cc(C(F)(F)F)c2)C3)CCN1 [Example 212] |
| ≤ 100 | CC1CNCCN1C(=O)c1cc2n(n1)CCCN(C(=O)OCc1cc(Cl)cc(C(F)(F)F)c1)C2 (stereo not shown) [Example 213] |
| ≤ 100 | O=C(OCc1cc(Cl)cc(C(F)(F)F)c1)N1CCCn2nc(C(=O)N3CCN4CCC[C@@H]4C3)cc2C1 [Example 214] |
| ≤ 100 | CN1CCN(C(=O)c2cc3n(n2)CCCN(C(=O)OCc2cc(C(F)(F)F)cc(C(F)(F)F)c2)C3)CC1 [Example 215] |
| ≤ 100 | CN1CCN(C(=O)c2cc3n(n2)CCCN(C(=O)OCc2cc(Cl)cc(C(F)(F)F)c2)C3)CC1 [Example 216] |
| ≤ 100 | CN1CCN(C(=O)c2cc3n(n2)CCCN(C(=O)OCc2cc(C(F)(F)F)cc(C(F)(F)F)c2)C3)C(C)(C)C1 [Example 218] |
| ≤ 100 | O=C(OCc1cc(C(F)(F)F)cc(C(F)(F)F)c1)N1CCCn2nc(C(=O)N3CCNCC34CC4)cc2C1 [Example 219] |
| ≤ 100 | CN1CCN(C(=O)c2cc3n(n2)CCCN(C(=O)OCc2cc(C(F)(F)F)cc(C(F)(F)F)c2)C3)C2(CC2)C1 [Example 220] |

| IC50 [nM] | Compound |
| --- | --- |
| ≤ 100 | CN1CC2CCC1CN2C(=O)c1cc2n(n1)CCCN(C(=O)OCc1cc(C(F)(F)F)cc(C(F)(F)F)c1)C2 (stereo not shown) [Example 222] |
| ≤ 100 | CC1CN(C(=O)c2cc3n(n2)CCCN(C(=O)OCc2cc(C(F)(F)F)cc(C(F)(F)F)c2)C3)CC(C)N1 (stereo not shown) [Example 223] |
| ≤ 100 | O=C(OCc1cc(C(F)(F)F)cc(C(F)(F)F)c1)N1CCCn2nc(C(=O)N3CC4CCC3CN4)cc2C1 (stereo not shown) [Example 224] |
| ≤ 100 | O=C(O)C1CNCCN1C(=O)c1cc2n(n1)CCCN(C(=O)OCc1cc(Cl)cc(C(F)(F)F)c1)C2 (stereo not shown) [Example 226] |
| ≤ 100 | O=C(O)C1CN(C(=O)c2cc3n(n2)CCCN(C(=O)OCc2cc(Cl)cc(C(F)(F)F)c2)C3)CCN1 (stereo not shown) [Example 227] |
| ≤ 100 | O=C(OCc1cc(Cl)cc(Cl)c1)N1CCCn2nc(C(=O)N3CCN4CCC[C@@H]4C3)cc2C1 [Example 228] |
| ≤ 100 | CCC1(CC)CN(C)CCN1C(=O)c1cc2n(n1)CCCN(C(=O)OCc1cc(Cl)cc(C(F)(F)F)c1)C2 [Example 229] |
| ≤ 100 | CCC1(CC)CNCCN1C(=O)c1cc2n(n1)CCCN(C(=O)OCc1cc(Cl)cc(C(F)(F)F)c1)C2 [Example 231] |
| ≤ 100 | CN1CCN(C(=O)c2cc3n(n2)CCCN(C(=O)OCc2cc(Cl)cc(C(F)(F)F)c2)C3)C2(CCCC2)C1 [Example 232] |
| ≤ 100 | CN1CCN(C(=O)c2cc3n(n2)CCCN(C(=O)OCc2cc(C(F)(F)F)cc(C(F)(F)F)c2)C3)C2(CCC2)C1 [Example 233] |
| ≤ 100 | O=C(OCc1cc(Cl)cc(C(F)(F)F)c1)N1CCCn2nc(C(=O)N3CCNCC34CCCC4)cc2C1 [Example 234] |
| ≤ 100 | O=C(OCc1cc(C(F)(F)F)cc(C(F)(F)F)c1)N1CCCn2nc(C(=O)N3CCNCC34CCC4)cc2C1 [Example 235] |
| ≤ 100 | CCN1CCN(C(=O)c2cc3n(n2)CCCN(C(=O)OCc2cc(C(F)(F)F)cc(C(F)(F)F)c2)C3)C2(CC2)C1 [Example 237] |
| ≤ 100 | CN1CCN(C(=O)c2cc3n(n2)CCCN(C(=O)OCc2cc(C(F)(F)F)cc(C(F)(F)F)c2)C3)C2(CCCC2)C1 [Example 238] |
| ≤ 100 | CC1(C)CNCCN1C(=O)c1cc2n(n1)CCCN(C(=O)OCc1cc(C(F)(F)F)cc(C(F)(F)F)c1)C2 [Example 239] |
| ≤ 100 | O=C(OCc1cc(C(F)(F)F)cc(C(F)(F)F)c1)N1CCCn2nc(C(=O)N3CCNCC34CCCC4)cc2C1 [Example 240] |
| ≤ 100 | CCC1(CC)CNCCN1C(=O)c1cc2n(n1)CCCN(C(=O)OCc1cc(C(F)(F)F)cc(C(F)(F)F)c1)C2 [Example 241] |
| ≤ 100 | CNC1CN(C(=O)c2cc3n(n2)CCCN(C(=O)OCc2cc(C(F)(F)F)cc(C(F)(F)F)c2)C3)C1 [Example 242] |
| ≤ 100 | CNC1CCN(C(=O)c2cc3n(n2)CCCN(C(=O)OCc2cc(C(F)(F)F)cc(C(F)(F)F)c2)C3)C1 (stereo not shown) [Example 243] |
| ≤ 100 | CCN1CCN(C(=O)c2cc3n(n2)CCCN(C(=O)OCc2cc(C(F)(F)F)cc(C(F)(F)F)c2)C3)C(C)(C)C1 [Example 244] |
| ≤ 100 | N#CC1CNCCN1C(=O)c1cc2n(n1)CCCN(C(=O)OCc1cc(C(F)(F)F)cc(C(F)(F)F)c1)C2 (stereo not shown) [Example 245] |
| ≤ 100 | N#CC1CN(C(=O)c2cc3n(n2)CCCN(C(=O)OCc2cc(C(F)(F)F)cc(C(F)(F)F)c2)C3)CCN1 (stereo not shown) [Example 246] |
| ≤ 100 | C[C@H]1CNC[C@H](C)N1C(=O)c1cc2n(n1)CCCN(C(=O)OCc1cc(C(F)(F)F)cc(C(F)(F)F)c1)C2 [Example 247] |
| ≤ 100 | C[C@@H]1CNC[C@@H](C)N1C(=O)c1cc2n(n1)CCCN(C(=O)OCc1cc(C(F)(F)F)cc(C(F)(F)F)c1)C2 [Example 248] |
| ≤ 100 | CC1CNCC(C)N1C(=O)c1cc2n(n1)CCCN(C(=O)OCc1cc(C(F)(F)F)cc(C(F)(F)F)c1)C2 (stereo not shown) [Example 249] |
| ≤ 100 | O=C(CCl)c1cc2n(n1)CCCN(C(=O)OCc1cc(Cl)cc(C(F)(F)F)c1)C2 [Example 250, 3-Chloro-5-(trifluoromethyl)benzyl 2-(2-chloroacetyl)-7,8-dihydro-4H-pyrazolo[1,5-a][1,4]diazepine-5(6H)-carboxylate] |
| ≤ 100 | O=C(OCc1cc(C(F)(F)F)cc(C(F)(F)F)c1)N1CCn2nc(C3CN4CCC[C@H]4CO3)cc2C1 (stereo partly drawn) [Example 255, 3,5-bis(trifluoromethyl)benzyl 2-((8aS)-hexahydro-1H-pyrrolo[2,1-c][1,4]oxazin-3-yl)-6,7-dihydropyrazolo[1,5-a]pyrazine-5(4H)-carboxylate] |

| Compound | IC50 [nM] |
| --- | --- |
| CN1C2CCC1CN(C(=O)c1cc3n(n1)CCCN(C(=O)OCc1cc(Cl)cc(C(F)(F)F)c1)C3)C2 [Example 201] | ≤ 100 |
| O=C(OCc1cc(Cl)cc(C(F)(F)F)c1)N1CCCn2nc(C(=O)N3C4CCC3CNC4)cc2C1 [Example 203] | ≤ 100 |
| O=C(OCc1cc(Cl)cc(C(F)(F)F)c1)N1CCCn2nc(C(=O)N3CC4CCC(C3)N4)cc2C1 [Example 209] | ≤ 100 |
| CN1C2CCCC1CN(C(=O)c1cc3n(n1)CCCN(C(=O)OCc1cc(Cl)cc(C(F)(F)F)c1)C3)C2 [Example 217] | ≤ 100 |
| O=C(OCc1cc(C(F)(F)F)cc(C(F)(F)F)c1)N1CCCn2nc(C(=O)N3CC4CCC(C3)N4)cc2C1 [Example 221] | ≤ 100 |
| CN1C2CCC1CN(C(=O)c1cc3n(n1)CCCN(C(=O)OCc1cc(C(F)(F)F)cc(C(F)(F)F)c1)C3)C2 [Example 225] | ≤ 100 |
| CN1C2CCCC1CN(C(=O)c1cc3n(n1)CCCN(C(=O)OCc1cc(C(F)(F)F)cc(C(F)(F)F)c1)C3)C2 [Example 230] | ≤ 100 |
